Test results: patent US20190018003A1, “TUMOR DISCRIMINATION METHOD, DIAGNOSTIC AGENT FOR TUMOR, AND SENSITIZER FOR TUMOR DIAGNOSIS” (TOTO LTD., priority 2017, published 2019)

Key:
[1] = system: WI-38 immortalized normal cells; test: Discrimination test, fluorescence in WI-38 immortalized normal cells after ALA and particles (separate plates); assay type: cell-based, human; conditions: Example 10; WI-38 cell line; ALA 2 mmol/l, particles 0.001 w/v %
Procedure: Immortalized cell line WI-38 cells (WI-38 VA13 sub 2 RA, JCRB9057) of normal diploid fibroblast cell line WI-38 were prepared. This cell line was subcultured in an MEM medium (MEM, GlutaMAX™ supplement (Thermo Fisher Scientific), 10 v/v % FBS (Thermo Fischer Scientific)). The cultured cells which reached a logarithmic growth phase 3 days or 4 days later were peeled off with Trypsin/EDTA (Thermo Fisher Scientific) and, after the reaction was terminated in an MEM medium, centrifuged. The cell pellet obtained was suspended in an MEM medium. The cell suspension was subjected to measurement of cell density, inoculated onto a 6-well plate at a density of 5.0×10^4 cells/2 ml/well, and cultured for 3 days.
An aqueous ALA solution (50 mmol/l) was mixed into an MEM medium (MEM, GlutaMAX™ supplement (Thermo Fisher Scientific)) to form a 2 mmol/l ALA solution. Further, an aqueous solution of light scattering particles (2) (ii) was mixed into an MEM medium to form a 0.001 w/v % light scattering particle solution.
The media of the T24 cells and the WI-38 cells on 6-well plates, obtained in Example 3, were respectively removed by an aspirator, and detection was performed in the same manner as in Example 4, and relative fluorescence intensities were calculated.

[2] = system: UM-UC-3 urinary bladder cancer cells; test: Fluorescence enhancement in UM-UC-3 cells detected by optical spectral detector (635 nm); assay type: cell-based, human; conditions: Example 17, ALA 2 mmol/l, particles 0.001 w/v %, 405 nm excitation, 635 nm detection, immediately after light irradiation
Description: An aqueous ALA solution (50 mmol/l) was mixed into an E-MEM medium (ATCC-formulated Eagle's Minimum Essential Medium (ATCC)) to form a 2 mmol/l ALA solution. Further, aqueous solutions of light scattering particles (2) (ii) and 3 (ii) were mixed into an E-MEM medium to respectively form a light scattering particle solution having a concentration of 0.001 w/v %.
The medium of the UM-UC-3 cells on a 6-well plate, obtained in Example 3, was removed by an aspirator, and evaluation thereof was performed under the same conditions as in Example 5 and the solution was used for detection.
Detection was performed by using an optical spectral detector (USB 2000, a small sized fiber optical spectroscope, Ocean Optics) at room temperature in a dark place. […] Fluorescence generated therefrom was passed through a collimate lens disposed on the upper surface in a 50° direction, the collimate lens having a focal distance of 10.9 mm and a numerical aperture of 0.25 (F220SMA-A, Thorlabs) and, further, through an optical fiber (M59L01, Thorlabs) of φ=1 mm and a numerical aperture of 0.5, and was detected by the above optical spectral detector. […] And, by obtaining a difference in each measurement sample by subtracting the background intensity value from an intensity value of the measurement sample at a wavelength of 635 nm, the fluorescence detection intensity was calculated. […]

`NCC(=O)CCC(=O)O` [fluorescent dye, 5-aminolevulinic acid] was tested, and the Relative fluorescence intensity [1] was 0.7 and the “Relative detected fluorescence intensity” value [2] was 1.0.
